Assay type in all cases: in vivo, human
Experiment [1] relates to sweet sensitive panelists. In words: Ranking test in water, sucrose iso-intensity, formal sensory panel (R-index). The following applies: for More Sweet Sample / R-index: in water. The method, then: (§1) The sensory evaluation was conducted using a ranking method. Samples at ambient temperature were randomly presented in 20 ml blind aliquots (unidentifiable by panelists). Panels consisted of 20 sweet sensitive subjects and samples were presented in 2 replications over 1 session. After tasting each sample, the mouth was rinsed thoroughly with water at ambient temperature prior to tasting the next sample. Panelists were presented with 0.5%, 1.0%, and 1.5% sucrose solutions in water and two samples of stevioside/rebaudioside A at 30 and 45 ppm in water, respectively. Subjects were asked to rank the samples from low to high with respect to perceived sweet taste. R-indices were calculated for 30 and 45 ppm stevioside/rebaudioside A samples versus either 0.5%, 1.0% or 1.5% sucrose.
The sensory evaluation was conducted using the same method as described in Example 4. Panels consisted of 20 sweet sensitive subjects and samples were presented in 2 replications over 1 session. Panelists were presented with 20 mL of 0.5%, 1.0%, and 1.5% sucrose solutions in water and two samples of stevioside/rebaudioside A (3:1) at 35 and 40 ppm in water, respectively. Subjects were asked to rank the samples from low to high with respect to perceived sweet taste. R-indices were calculated for 35 and 40 ppm stevioside/rebaudioside A samples versus either 0.5%, 1.0% or 1.5% sucrose.
Two ounces of each sample was presented in random order to 20 sweet sensitive panelists. In two replications (over 1 session), Panelists were asked to rank the samples from least sweet to most sweet. The data were subjected to an R-index analysis.

The next experiment concerns experienced tasters. In words: Comparison of upfront sweetness on top of 5% sucrose solution, 5 experienced tasters. As for the experimental part: Two mixtures, stevioside/rebaudioside A (3:1) and (2:1) were evaluated for their upfront sweetness in comparison with pure stevioside and rebaudioside A. Sensory evaluation was carried out with 5 experienced tasters. 30 ppm of stevioside/rebaudioside A (3:1), (2:1), and Rebaudioside A on top of 5% sucrose solution were prepared along with 20, 35, 45, 75 ppm stevioside in 5% sucrose solutions. Samples were prepared fresh and at room temperature and were paired and tasted with water rinsing in-between.

The subject of experiment [2] is sweet sensitive panelists. As to the kind of experiment: Iso-intensity in 5% sucrose solution (sweetness enhancement), formal sensory panel (R-index). As for the experimental part: as §1
The sensory evaluation was conducted using the same method as described in Example 4. Panels consisted of 20 sweet sensitive subjects and samples were presented in 2 replications over 1 session. Panelists were presented with 20 mL of 5.5%, 6.0%, 6.5%, 7.0%, 8.0% sucrose solutions and one sample of 35 ppm stevioside/rebaudioside A in 5.0% sucrose, respectively. Subjects were asked to rank the samples from low to high with respect to perceived sweet taste. R-indices were calculated for 35 ppm stevioside/rebaudioside A in 5.0% sucrose sample versus either 6.0%, 6.5%, 7.0% or 8.0% sucrose.
The objective of this test was to determine the extent to which stevioside enhances sweetness perception of a 5% sucrose solution.
This example examined the effect of 30 ppm rebaudioside A on top of 5% sucrose.

Where [3] appears, read: 30 ppm Stevioside vs. 0.5% sucrose.
[4] abbreviates: 30 ppm Stevioside vs. 1.0% sucrose.
[5] abbreviates: 30 ppm Stevioside vs. 1.5% sucrose.
[6] abbreviates: 30 ppm Stevioside vs. 40 ppm Stevioside.
Where [7] appears, read: 40 ppm Stevioside vs. 0.5% sucrose.
[8] abbreviates: 40 ppm Stevioside vs. 1.0% sucrose.
The mark [9] stands for this setting: 40 ppm Stevioside vs. 1.5% sucrose.
The mark [10] stands for this setting: 5% sucrose + 35 ppm Stevioside vs. 5.0% sucrose.
Setting [11] is: 5% sucrose + 35 ppm Stevioside vs. 6.0% sucrose.
Where [12] appears, read: 5% sucrose + 35 ppm Stevioside vs. 7.0% sucrose.
The mark [13] stands for this setting: 5% sucrose + 30 ppm RebA vs. 5% sucrose.
[14] abbreviates: 5% sucrose + 30 ppm RebA vs. 6% sucrose.
[15] abbreviates: 5% sucrose + 30 ppm RebA vs. 7% sucrose.

Turning to `C=C1C[C@@]23CC[C@H]4[C@@](C)(CCC[C@@]4(C)C(=O)O[C@@H]4O[C@H](CO)[C@@H](O)[C@H](O)[C@H]4O)[C@@H]2CC[C@]1(O[C@@H]1O[C@H](CO)[C@@H](O)[C@H](O)[C@H]1O[C@@H]1O[C@H](CO)[C@@H](O)[C@H](O)[C@H]1O)C3` [Stevioside, stevioside], the “More Sweet Sample” value amounted to 30 ppm in experiment [1] (setting [3]); 1.0% sucrose in experiment [1] (setting [4]); 1.5% sucrose in experiment [1] (setting [5]); 40 ppm in experiment [1] (setting [6]); 40 ppm in experiment [1] (setting [7]); 40 ppm in experiment [1] (setting [8]). Moreover, the “More Sweet Sample” value in experiment [1] (setting [9]) amounted to 1.5% sucrose; in experiment [2] (setting [10]) it was 5% sucrose +; in experiment [2] (setting [11]) it was 5% sucrose +; in experiment [2] (setting [12]), 7.0% sucrose. Besides, the R-index in experiment [1] (setting [3]) is listed as 25.625; in experiment [1] (setting [4]), 66.938; in experiment [1] (setting [5]), 94.750; in experiment [1] (setting [6]), 80.188; in experiment [1] (setting [7]) it was 11.375; in experiment [1] (setting [8]) it was 29.094. The R-index in experiment [1] (setting [9]) was 82.219; in experiment [2] (setting [10]), 8.281; in experiment [2] (setting [11]), 21.094; in experiment [2] (setting [12]), 78.125. For the same compound, the results for the “Sucrose equivalence of sweetness by interpolation” value in experiment [1] (30 ppm in water) and in experiment [1] (40 ppm in water) were 0.75 % sucrose and 1.25 % sucrose, respectively. Besides, the “Isosweet sucrose concentration determined from 30 and 40 ppm data” value in experiment [1] (35 ppm in water) came to 1.0 % sucrose. Also, the “Description of upfront sweetness” value in the experiment with experienced tasters (20, 35, 45, 75 ppm in 5% sucrose solutions) was “delayed onset and lack of the upfront sweetness”. Also, the Ranking of sweetness result in the experiment with experienced tasters (75 ppm in 5% sucrose solution) is recorded as “ranked as the sweetest but not the most upfront one”. In addition, the “Iso-sweet sucrose concentration by interpolation” value in experiment [2] (35 ppm in 5% sucrose) amounted to 6.5 % sucrose. Also, the “Additional sucrose equivalence (sweetness enhancing effect)” value in experiment [2] (35 ppm on top of 5% sucrose) came to 0.5 % sucrose equivalence.
Compound `C=C1C[C@@]23CC[C@H]4[C@@](C)(CCC[C@@]4(C)C(=O)O[C@@H]4O[C@H](CO)[C@@H](O)[C@H](O)[C@H]4O)[C@@H]2CC[C@]1(O[C@@H]1O[C@H](CO)[C@@H](O)[C@H](O[C@@H]2O[C@H](CO)[C@@H](O)[C@H](O)[C@H]2O)[C@H]1O[C@@H]1O[C@H](CO)[C@@H](O)[C@H](O)[C@H]1O)C3` [rebaudioside A] registered an Iso-intense sucrose concentration in experiment [1] (30 ppm, iso-intensity study) of 1 % sucrose. Further, the More Sweet Sample amounted to 5% sucrose + in experiment [2] (setting [13]), 5% sucrose + in experiment [2] (setting [14]) and 7% sucrose in experiment [2] (setting [15]). Moreover, the figures for the R-index in experiment [2] (setting [13]), in experiment [2] (setting [14]) and in experiment [2] (setting [15]) were 1.313, 22.625 and 89.000, respectively. In experiment [2] (30 ppm in 5% sucrose), the “Isosweet sucrose concentration by interpolation” value was 6.5 % sucrose. In addition, in experiment [2] (30 ppm on top of 5% sucrose), the “Sucrose equivalence in enhancement” value is recorded as 0.5 % sucrose equivalence.
